Measurements as given in ChEMBL document CHEMBL1136107, “Improvement of therapeutic index of phosphodiesterase type IV inhibitors as anti-Asthmatics” (Bioorg Med Chem Lett, 2003).
The source made the active and inactive calls.

Tests used:
Cavia porcellus [1] = assay: Eosinophil infiltration in passively-sensitized guinea pig at 30 mg/kg peroral dose 90 min prior to challenge; format: functional; details: route oral
Cavia porcellus [2] = assay: Inhibition of bronchoconstriction in passively-sensitized guinea pig at 1 mg/kg iv dose 10 min prior to challenge; format: functional; details: Lung
Mustela putorius furo = assay: Emetic effect in ferrets after peroral administration at 0.03 mg/kg (2/5); format: functional, organism-based; set-up: dose 0.03 mg/kg

SMILES	inhibition in vivo at 30 mg/kg (Cavia porcellus [1])	inhibition in vivo at 1 mg/kg (Cavia porcellus [2])	Emesis (Mustela putorius furo)
COc1ccc(/C=N/NC(N)=O)cc1OC1CCCC1	63%	90.3%	–
COc1ccc(C2CNC(=O)C2)cc1OC1CCCC1 (stereo not given) [ROLIPRAM]	62%	95.4%	Partially active
